Where a SMILES comes first, the peptide text is derived from it.
Tests used:
E. coli MC1061 = experiment: Spot dilution assay of E. coli producing the ubonodin variant from pUboABC; type: cell-based; settings: variant in pUboABC backbone in E. coli MC1061, induction with 100 μM IPTG, ten-fold serial dilutions, biological duplicates
Procedure, shortened: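 E. coli MC1061 carrying the plasmids was grown at 37 °C in LB with 100 μg/mL ampicillin to OD600 0.3, then induced with 100 μM IPTG. Samples taken before induction and at later timepoints were PBS-washed, spotted as ten-fold dilutions on ampicillin/0.2% glucose LB plates, and imaged after 16 h at 37 °C.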

B. cenocepacia AU0756 = tested on: B. cenocepacia AU0756
Procedure, shortened: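 Ubonodin variants were tested by broth microdilution following CLSI guidelines against clinical Burkholderia cenocepacia isolates AU0756 and AU24362.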

E. coli RNAP = settings: cited from earlier work

For CC[C@H](C)[C@@H]1NC(=O)[C@H](CO)NC(=O)CNC(=O)[C@H](CC(=O)O)NC(=O)CNC(=O)CNC(=O)CC[C@@H](C(=O)N[C@@H](Cc2ccc(O)cc2)C(=O)N[C@@H](Cc2ccccc2)C(=O)N[C@@H](CC(N)=O)C(=O)N[C@@H](CCCNC(=N)N)C(=O)N2CCC[C@H]2C(=O)N[C@@H](CCSC)C(=O)N[C@@H](Cc2c[nH]cn2)C(=O)N[C@H](C(=O)N[C@@H](Cc2c[nH]cn2)C(=O)N[C@@H](CC(=O)O)C(=O)N[C@@H](Cc2c[nH]c3ccccc23)C(=O)N[C@@H](CCC(N)=O)C(=O)N[C@H](C(=O)N[C@@H](CCSC)C(=O)N[C@@H](CC(=O)O)C(=O)N[C@@H](CO)C(=O)NCC(=O)N[C@@H](Cc2ccc(O)cc2)C(=O)N[C@@H](Cc2ccc(O)cc2)C(=O)NCC(=O)O)[C@@H](C)CC)[C@@H](C)CC)NC(=O)[C@H](C)NC1=O [WT, ubonodin] (HELM PEPTIDE1{G.G.D.G.S.I.A.E.Y.F.N.R.P.M.H.I.H.D.W.Q.I.M.D.S.G.Y.Y.G}$PEPTIDE1,PEPTIDE1,1:R1-8:R3$$$V2.0; C-terminus assumed), the “Inhibits Growth” value (E. coli MC1061) is given as “Yes”, the “B. cenocepacia AU0756 MIC” value (B. cenocepacia AU0756) is given as 0.25 to 0.5 µM and the “Inhibition of E. coli RNAP in vitro” value (E. coli RNAP) is given as “inhibits E. coli RNAP in vitro”.

Reference: article PMC10037499, “High-Throughput Screen Reveals the Structure–Activity Relationship of the Antimicrobial Lasso Peptide Ubonodin” (ACS Central Science, 2023)
